Assays:
[1] = biological target: T1, CDK4/Cyclin D1 (Homo sapiens, UniProt P11802); assay: cell-free […]-ATP kinase assay, P81 phosphocellulose plate; type: biochemical
[2] = biological target: T1, CDK4/Cyclin D1; assay: as above; type: biochemical; conditions: read-out: 40 μM

T1 sequence (P11802 2-303): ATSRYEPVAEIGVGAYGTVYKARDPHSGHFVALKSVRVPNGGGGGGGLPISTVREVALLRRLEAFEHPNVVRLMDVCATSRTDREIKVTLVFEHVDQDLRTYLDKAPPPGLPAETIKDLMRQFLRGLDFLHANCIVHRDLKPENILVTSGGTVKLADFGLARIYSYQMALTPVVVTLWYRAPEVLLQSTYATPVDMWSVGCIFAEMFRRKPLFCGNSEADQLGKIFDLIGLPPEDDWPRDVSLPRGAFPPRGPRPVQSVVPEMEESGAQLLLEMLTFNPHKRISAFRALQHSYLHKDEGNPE
T1 sequence (P24385 whole entry partner): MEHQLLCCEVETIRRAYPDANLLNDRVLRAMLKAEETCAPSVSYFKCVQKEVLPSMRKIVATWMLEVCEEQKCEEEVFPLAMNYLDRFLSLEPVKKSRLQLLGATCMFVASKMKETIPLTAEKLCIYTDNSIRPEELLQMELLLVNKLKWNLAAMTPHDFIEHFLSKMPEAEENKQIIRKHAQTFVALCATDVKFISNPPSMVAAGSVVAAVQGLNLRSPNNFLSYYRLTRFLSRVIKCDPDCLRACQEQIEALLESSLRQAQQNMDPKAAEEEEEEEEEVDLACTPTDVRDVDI

Row | SMILES | IC50 [1] [µM] | activity at 40 µM [2] [%]
1 | COc1c(O)cc2oc3cc4c(c(O)c3c(=O)c2c1CC=C(C)C)CCC(C)(C)O4 [3-isomangostin] | 15.6 | 
2 | CC(C)=CCc1c(O)c(CC=C(C)C)c2oc3c(O)cccc3c(=O)c2c1O [8-desoxygartanin] |  | 81.4 ± 6.38
3 | CC(C)=CCc1c(O)cc2oc3cc(O)c(O)c(CCC(C)(C)O)c3c(=O)c2c1O [garcinone C] |  | 65.7 ± 7.94
4 | COc1c(O)cc2oc3cc(O)c(CC=C(C)C)c(O)c3c(=O)c2c1CCC(C)(C)O [garcinone D] | 12.8 | 
5 | CC(C)=CCc1c(O)c(CC=C(C)C)c2oc3c(O)ccc(O)c3c(=O)c2c1O [gartanin] |  | 80.2 ± 10.2
6 | COc1c(O)cc2oc3cc(O)c(CC=C(C)C)c(O)c3c(=O)c2c1CC=C(C)C [α-mangostin] | 8.5 | 
7 | COc1cc2oc3cc(O)c(OC)c(CC=C(C)C)c3c(=O)c2c(O)c1CC=C(C)C [β-mangostin] |  | 55 ± 2.88
8 | CC(C)=CCc1c(O)cc2oc3cc(O)c(O)c(CC=C(C)C)c3c(=O)c2c1O [γ-mangostin] | 6.2 | 

From publication PMC6667231 (International journal of nutrition, 2019)
